Laboratory results as given in patent US20210330594A1, “Fast-Acting Soft Gelatin Capsules Containing A Mixture Of Pain Reliever/Fever Reducer, Diuretic And Antihistamine” (PuraCap Pharmaceutical LLC, priority 2018, published 2021).
Where a name gives a salt, the structure may show the parent alone.

Experiment: Stability determination of softgels under accelerated conditions (API assay)
Format: physicochemical
Conditions: for T0 % of label: softgel of Example 1, initial (T0) API assay; for Assay % of label 40° C./75% RH 1 M / Assay % of label 40° C./75% RH 2 M / Assay % of label 40° C./75% RH 3 M: softgel, accelerated conditions 40° C./75% RH
Protocol: Manufactured softgels are evaluated to predict shelf life of the product. Softgel samples are kept under accelerated conditions (ACC) of 40° C./75% RH for 180 days. Samples are withdrawn and tested at predetermined periods for API assay and homogeneity. Results are compared against the label specification; if ACC-6M results (i.e., at 6 months) are within specification then a product shelf life of 2 years is predicted.

Row | T0 % of label | Assay % of label 40° C./75% RH 1 M | Assay % of label 40° C./75% RH 2 M | Assay % of label 40° C./75% RH 3 M | Structure (SMILES)
1 | 94.2 % of label | 94.0 % of label | 94.1 % of label | 92.2 % of label | CC(=O)Nc1ccc(O)cc1 [Acetaminophen]
2 | 95.5 % of label | 95.1 % of label | 95.0 % of label | 93.4 % of label | Cn1c(=O)c2[nH]c(Br)nc2n(C)c1=O [Pamabrom]
3 | 94.3 % of label | 94.0 % of label | 94.2 % of label | 93.9 % of label | COc1ccc(CN(CCN(C)C)c2ccccn2)cc1 [Pyrilamine Maleate]
